Experimental findings from article PMC7614683, “A small molecule PI3Kα activator for cardioprotection and neuroregeneration” (Nature, 2023) are described below.

The subject of this test is adult rat DRG neurons. The test can be described thus: Neurite outgrowth in dissociated adult rat dorsal root ganglion cultures. As to conditions: 72h; BYL719 500 nM with 1938 above 10^-7 M. The test is classed as cell-based. From the text:
Dissociated adult rat dorsal root ganglion (DRG) cultures were used as an in vitro model for neuroregeneration[80],[81]. DRG neurons were isolated from adult male (>250g) Wistar rats as described, with DRGs from each rat cultured separately. Following culling via schedule 1 (rising concentration of CO2), the spinal column was removed and stored in PBS on ice. Cord tissue was removed to expose the DRGs and roots in the intervertebral foramen and the DRGs removed with forceps and scalpel under a dissecting microscope (Olympus SZ40). DRGs were manually cleaned by removal of roots, capsule and capillaries with forceps and then placed in DMEM supplemented with P/S. DRGs were treated with 0.125% collagenase type IV solution at 37°C for 90 min, and then mechanically dissociated by trituration using a 1 ml pipette. The collagenase solution was removed by 2 rounds of centrifugation in complete DMEM (DMEM with 1% P/S and 10% FBS) at 400 xg for 5 min, followed by resuspension of the DRG cell pellet in complete DMEM supplemented with 0.01 mM cytosine arabinoside. DRGs were plated in 75-cm[2] flasks coated with 0.1 mg/ml poly-D-lysine and incubated at 37°C, 5% CO2. […] 9 fields per well were captured and analysed using the CSIRO Neurite Analysis 2 […] in Columbus analysis software (Perkin Elmer). […]

`CCN1CCN(c2ccc(Nc3cc(Nc4cccc5c4N(C(C)=O)CC5)ccn3)cc2)CC1` [Compound 1938]: the “neurite outgrowth (total length of neurites)” value is reported as “doubling the total length of neurites”.
